Test results as given in patent US9284284B2, “Oxazine derivatives and their use in the treatment of disease” (NOVARTIS AG, priority 2011, dated 2016).
Where a name gives a salt, the structure may show the parent alone. Read-outs that look alike come from different tables or passages of the source.

Tests used:
[1] = molecular target: human BACE-1 (Homo sapiens (Human), UniProt P56817); experiment: Test 1: Inhibition of Human BACE-1; type: biochemical; details: recombinant BACE-1, pH 4.5, fluorescence-quenched substrate
human BACE-1, sequence (P56817 46-457): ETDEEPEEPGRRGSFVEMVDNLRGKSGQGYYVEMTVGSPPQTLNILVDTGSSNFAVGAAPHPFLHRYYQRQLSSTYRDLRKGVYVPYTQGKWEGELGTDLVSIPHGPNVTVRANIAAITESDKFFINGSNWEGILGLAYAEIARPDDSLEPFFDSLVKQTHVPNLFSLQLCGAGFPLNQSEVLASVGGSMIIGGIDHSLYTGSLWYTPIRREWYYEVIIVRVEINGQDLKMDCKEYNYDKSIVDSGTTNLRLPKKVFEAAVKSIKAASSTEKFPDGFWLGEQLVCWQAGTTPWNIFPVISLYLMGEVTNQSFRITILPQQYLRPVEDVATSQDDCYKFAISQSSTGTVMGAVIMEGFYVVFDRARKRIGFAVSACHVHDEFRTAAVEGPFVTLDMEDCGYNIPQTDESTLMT
Protocol: Test 1: Inhibition of Human BACE-1
(§1) Recombinant BACE-1 (extracellular domain, expressed in baculovirus and purified using standard methods) at 0.1 to 1 nM concentrations is incubated with the test compound at various concentrations for 1 hour at room temperature in 100 mM acetate buffer, pH 4.5, containing 0.1% CHAPS. Activity was measured using a final concentration of 3 μM of the fluorescence-quenched substrate Q-C(HSO3)-Ile-Asp-Leu-Ala-Val-Leu-Asp-HN—CH2—CH2-Mca, where Q=2-nitro-5-amino benzoic acid and Mca=7-methoxy-4-coumarinyl acetic acid. […] Fluorescence increase was followed for 15 min, in 1 minute's intervals. The fluorescence/time slopes were calculated from duplicate wells and from wells without inhibitor and the IC50 values were calculated using a logistic 4-parameter model.

[2] = test system: amyloid peptide 1-40 release; experiment: Test 4: Inhibition of Cellular Release of Amyloid Peptide 1-40; type: cell-based; details: Chinese hamster ovary cells transfected with the human gene for amyloid precursor protein, 24 hours, read-out: Amyloid-β1-40 release IC50
Protocol: Chinese hamster ovary cells are transfected with the human gene for amyloid precursor protein. The cells are plated at a density of 8000 cells/well into 96-well microtiter plates and cultivated for 24 hours in DMEM cell culture medium containing 10% FCS. The test compound is added to the cells at various concentrations, and the cells are cultivated for 24 hours in the presence of the test compound. […] The potency of the compound is calculated from the percentage of inhibition of amyloid peptide release as a function of the test compound concentration.

[3] = molecular target: human BACE-2 (Homo sapiens (Human), UniProt Q9Y5Z0); experiment: Test 2: Inhibition of Human BACE-2; type: biochemical; details: recombinant BACE-2, pH 4.5, fluorescence-quenched substrate
human BACE-2, sequence (Q9Y5Z0 63-473): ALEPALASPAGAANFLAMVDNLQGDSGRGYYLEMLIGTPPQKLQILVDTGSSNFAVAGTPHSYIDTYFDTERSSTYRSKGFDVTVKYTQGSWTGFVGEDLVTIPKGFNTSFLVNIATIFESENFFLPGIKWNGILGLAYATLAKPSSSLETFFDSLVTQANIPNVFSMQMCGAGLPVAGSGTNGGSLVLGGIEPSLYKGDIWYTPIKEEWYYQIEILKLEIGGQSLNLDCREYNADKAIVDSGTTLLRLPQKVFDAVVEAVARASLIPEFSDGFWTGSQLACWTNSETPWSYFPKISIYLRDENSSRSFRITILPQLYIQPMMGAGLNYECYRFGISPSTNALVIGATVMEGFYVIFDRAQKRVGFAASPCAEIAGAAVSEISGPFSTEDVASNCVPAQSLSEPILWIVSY
Protocol: Test 2: Inhibition of Human BACE-2
as §1, with “BACE-2” for “BACE-1”

SMILES | IC50 [1] [nM] | IC50 ([2]; Cricetulus griseus) [nM] | IC50 [3] [nM] | IC50 [2] [nM]
CC1(c2cccc(Nc3nsc4cc(Br)ccc34)c2)COCC(N)=N1 (centres unmarked) [Example 1, [3-(5-Amino-3-methyl-3,6-dihydro-2H-[1,4]oxazin-3-yl)-phenyl]-(6-bromo-benzo[d]isothiazol-3-yl)-amine] | 1500 | 2900 | 1900 | 
NC1=NC(c2cc(NCc3cc(Br)co3)ccc2F)(C(F)F)COC1 (centres unmarked) [Example 6, 5-{5-[(4-Bromo-furan-2-ylmethyl)-amino]-2-fluoro-phenyl}-5-difluoromethyl-5,6-dihydro-2H-[1,4]oxazin-3-ylamine] | 6200 | 740 | 8300 | 
C[C@@]1(c2nc(Nc3ncccc3C#N)ccc2F)CO[C@@](C)(C(F)(F)F)C(N)=N1 [Example 30, 2-[6-((3R,6R)-5-Amino-3,6-dimethyl-6-trifluoromethyl-3,6-dihydro-2H-[1,4]oxazin-3-yl)-5-fluoro-pyridin-2-ylamino]-nicotinonitrile] | 1500 | 150 | 1600 | 
COc1nccnc1Nc1ccc(F)c([C@]2(C(F)F)COCC(N)=N2)c1 [Example 18, (R)-5-Difluoromethyl-5-[2-fluoro-5-(3-methoxy-pyrazin-2-ylamino)-phenyl]-5,6-dihydro-2H-[1,4]oxazin-3-ylamine] | 2400 | 670 | 1300 | 
C[C@@]1(c2nc(Nc3ncnc4cc(C(F)(F)F)cnc34)ccc2F)CO[C@@](C)(C(F)(F)F)C(N)=N1 [Example 28, [6-((3R,6R)-5-Amino-3,6-dimethyl-6-trifluoromethyl-3,6-dihydro-2H-[1,4]oxazin-3-yl)-5-fluoro-pyridin-2-yl]-(7-trifluoromethyl-pyrido[3,2-d]pyrimidin-4-yl)-amine] | 68 | 150 | 200 | 
NC1=N[C@@](c2cc(Nc3nccn4ccnc34)ccc2F)(C(F)F)COC1 [Example 13, [3-((R)—S-Amino-3-difluoromethyl-3,6-dihydro-2H-[1,4]oxazin-3-yl)-4-fluoro-phenyl]-imidazo[1,2-a]pyrazin-8-yl-amine] | 1400 |  | 410 | 260
Cn1nc(Nc2cccc(C3(C)COCC(N)=N3)c2)c2ccc(Br)cc21 (centres unmarked) [Example 2, [3-(5-Amino-3-methyl-3,6-dihydro-2H-[1,4]oxazin-3-yl)-phenyl]-(6-bromo-1-methyl-1H-indazol-3-yl)-amine] | 5200 | 3500 | > 10000 | 
COc1cc([N+](=O)[O-])cnc1Nc1ccc(F)c([C@]2(C(F)F)COCC(N)=N2)c1 [Example 26, (R)-5-Difluoromethyl-5-[2-fluoro-5-(3-methoxy-5-nitro-pyridin-2-ylamino)-phenyl]-5,6-dihydro-2H-[1,4]oxazin-3-ylamine] | 2900 | 690 | 1400 | 
NC1=N[C@@](c2cc(Nc3ncnc4cc(Cl)cnc34)ccc2F)(C(F)F)COC1 [Example 7] | 36 | 22 | 32 | 
COc1cccnc1Nc1ccc(F)c([C@]2(C)CO[C@@](C)(C(F)(F)F)C(N)=N2)n1 [Example 31, (2R,5R)-5-[3-Fluoro-6-(3-methoxy-pyridin-2-ylamino)-pyridin-2-yl]-2,5-dimethyl-2-trifluoromethyl-5,6-dihydro-2H-[1,4]oxazin-3-ylamine] | 6400 | 1000 | 1700 | 
NC1=N[C@@](c2cc(Nc3nccc4cc(OCCCl)cnc34)ccc2F)(C(F)F)COC1 [Example 11] | 1900 | 250 | 5600 | 
COc1ccnc(Nc2ccc(F)c([C@]3(C(F)F)COCC(N)=N3)c2)n1 [Example 17, (R)-5-Difluoromethyl-5-[2-fluoro-5-(4-methoxy-pyrimidin-2-ylamino)-phenyl]-5,6-dihydro-2H-[1,4]oxazin-3-ylamine] | 1800 | 400 | 670 | 
COc1cc(N)cnc1Nc1ccc(F)c([C@]2(C(F)F)COCC(N)=N2)c1 [Example 27, N*2*-[3-((R)-5-Amino-3-difluoromethyl-3,6-dihydro-2H-[1,4]oxazin-3-yl)-4-fluoro-phenyl]-3-methoxy-pyridine-2,5-diamine] | 3000 | 2000 | 660 | 
NC1=N[C@@](c2cc(Nc3ncccc3OCC(F)F)ccc2F)(C(F)F)COC1 [Example 20, (R)-5-{5-[3-(2,2-Difluoro-ethoxy)-pyridin-2-ylamino]-2-fluoro-phenyl}-5-difluoromethyl-5,6-dihydro-2H-[1,4]oxazin-3-ylamine] | 1300 | 530 | 220 | 
COCCOc1cnc2c(Nc3ccc(F)c([C@]4(C(F)F)COCC(N)=N4)c3)nccc2c1 [Example 10, [3-((R)-5-Amino-3-difluoromethyl-3,6-dihydro-2H-[1,4]oxazin-3-yl)-4-fluoro-phenyl]-[3-(2-methoxy-ethoxy)-[1,7]naphthyridin-8-yl]-amine] | 600 | 24 | 8200 | 
NC1=NC(CF)(c2cc(NCc3ccc(Br)cc3Cl)ccc2F)COC1 (centres unmarked) [Example 5, 5-[5-(4-Bromo-2-chloro-benzylamino)-2-fluoro-phenyl]-5-fluoromethyl-5,6-dihydro-2H-[1,4]oxazin-3-ylamine] | 3600 | 1400 | 5300 | 
C[C@@]1(c2cc(Nc3ncnc4cc(C(F)(F)F)cnc34)ccc2F)CO[C@@](C)(C(F)(F)F)C(N)=N1 [Example 24, [3-((3R,6R)-5-Amino-3,6-dimethyl-6-trifluoromethyl-3,6-dihydro-2H-[1,4]oxazin-3-yl)-4-fluoro-phenyl]-(7-trifluoromethyl-pyrido[3,2-d]pyrimidin-4-yl)-amine] | 83 | 46 | 280 | 
Cn1nc(Nc2cccc([C@]3(C)COCC(N)=N3)c2)c2ccccc21 [Example 32, [3-((R)-5-Amino-3-methyl-3,6-dihydro-2H-[1,4]oxazin-3-yl)-phenyl]-(1-methyl-1H-indazol-3-yl)-amine] | > 10000 | 8300 | > 10000 | 
CC1(c2cc(NCc3ccco3)ccc2F)COCC(N)=N1 (centres unmarked) [Example 4, 5-{2-Fluoro-5-[(furan-2-ylmethyl)-amino]-phenyl}-5-methyl-5,6-dihydro-2H-[1,4]oxazin-3-ylamine] | 1900 | 380 | 2400 | 
NC1=N[C@@](c2cc(Nc3ncccc3OC(F)F)ccc2F)(C(F)F)COC1 [Example 22, (R)-5-[5-(3-Difluoromethoxy-pyridin-2-ylamino)-2-fluoro-phenyl]-5-difluoromethyl-5,6-dihydro-2H-[1,4]oxazin-3-ylamine] | 970 | 240 | 340 | 
C[C@@]1(c2cc(Nc3ncnc4cc(Cl)cnc34)ccc2F)CO[C@@](C)(C(F)(F)F)C(N)=N1 [Example 23, [3-((3R,6R)-5-Amino-3,6-dimethyl-6-trifluoromethyl-3,6-dihydro-2H-[1,4]oxazin-3-yl)-4-fluoro-phenyl]-(7-chloro-pyrido[3,2-d]pyrimidin-4-yl)-amine di-hydrochloride] | 40 | 51 | 11 | 
COc1cccnc1Nc1ccc(F)c([C@]2(C(F)F)COCC(N)=N2)c1 [Example 15, (R)-5-Difluoromethyl-5-[2-fluoro-5-(3-methoxy-pyridin-2-ylamino)-phenyl]-5,6-dihydro-2H-[1,4]oxazin-3-ylamine] | 300 | 56 | 89 | 
Cc1cn2ccnc(Nc3ccc(F)c([C@]4(C(F)F)COCC(N)=N4)c3)c2n1 [Example 12, [3-((R)-5-Amino-3-difluoromethyl-3,6-dihydro-2H-[1,4]oxazin-3-yl)-4-fluoro-phenyl]-(2-methyl-imidazo[1,2-a]pyrazin-8-yl)-amine] | 350 | 86 | 72 | 
NC1=N[C@@](c2cc(Nc3nccn4c(Br)cnc34)ccc2F)(C(F)F)COC1 [Example 14, [3-((R)-5-Amino-3-difluoromethyl-3,6-dihydro-2H-[1,4]oxazin-3-yl)-4-fluoro-phenyl]-(3-bromo-imidazo[1,2-a]pyrazin-8-yl)-amine] | 570 | 220 | 1400 | 
COc1c(N)ncnc1Nc1ccc(F)c([C@]2(C(F)F)COCC(N)=N2)c1 [N-[3-((R)-5-amino-3-difluoromethyl-3,6-dihydro-2H-[1,4]oxazin-3-yl)-4-fluoro-phenyl]-5-methoxy-pyrimidine-4,6-diamine] | > 10000 |  | > 10000 | 
